Assay results as given in patent US4102884A, “14 β-Hydroxy 3-deoxycardenolides” (priority 1975, dated 1978).
Entries after “also recorded” stand apart in the source; their conditions may differ. Like-named read-outs stand apart in the source and are kept apart here.

Columns and labels:
heart muscle = test system: heart muscle; set-up: species or system guinea pigs; details: decreasing order of number of washings; inotropic tests
Method: (§1) The inotropic effects have been determined with spontaneously beating atrial preparations derived from guinea pigs. The ATP-ase was obtained from the brain of the same animal and the methods of Okita et al (1973) and of Kupchan et al (1964) were employed. The lethal dose in cats was determined by the method of Chen.

[1] = test system: spontaneously beating atrial preparations; assay: Inotropic effect (increase in contractility) in spontaneously beating atrial preparations; set-up: species or system guinea pigs; details: for inotropic effect, comparison in words: compared with digoxin and/or 3-deoxycannogenol; for EC (30% increase in contractility) / EC (50% increase in contractility) / EC (80% increase in contractility): Cavia porcellus; for EC (30% increase in contractility): read-out: Molar concentration causing 30% increase in contractility; for EC (50% increase in contractility): read-out: Molar concentration causing 50% increase in contractility; for EC (80% increase in contractility): read-out: Molar concentration causing 80% increase in contractility; for arrhythmogenicity relative to digoxin, in words: inotropic tests
Method: as §1

[2] = Lipophilicity (statement in words); assay type: physicochemical
ATP-ase = ATP-ase inhibition, methods of Okita et al (1973) and Kupchan et al (1964); assay type: biochemical, guinea pigs (brain); set-up: ATP-ase inhibition, % reversibility of inhibition: concentration or dose not given beside the values; details: for ATP-ase inhibition, % reversibility of inhibition / ATP-ase inhibition, % inhibition at a 1×10^-4 molar concentration: Table 2; for ATP-ase inhibition, comparison in words: compared with 3-deoxycannogenol and digoxin, or acetyl-strophanthidin
Method: as §1

cats [3] = assay: Emetic effects in cats, intravenous; assay type: in vivo; details: intravenous doses amounting to 1/10 and 1/100 of the lethal dose
cats [4] = assay: Lethal dose in cats, method of Chen; assay type: in vivo; details: compared with digoxin
Method: as §1

[5] = cited from earlier work
heart = details: literature; cited from earlier work
[6] = Table 2, preliminary biological tests, 30%
[7] = Table I / Example 45, guinea pig atria

With C[C@H]1O[C@@H](O[C@H]2[C@@H](O)C[C@H](O[C@H]3[C@@H](O)C[C@H](O[C@H]4CC[C@@]5(C)[C@H](CC[C@@H]6[C@@H]5CC[C@]5(C)[C@@H](C7=CC(=O)OC7)CC[C@]65O)C4)O[C@@H]3C)O[C@@H]2C)C[C@H](O)[C@@H]1O [digitoxin, reference compound] the “number of washings to remove the compound from the bath / ease of removal” value (“number … from the bath / ease of removal” for short) (heart muscle) was “digitoxin > digoxin > 3-deoxycannogenol > 14,19-dihydroxy-5β,14β-carda-3,20(22)-dienolide > strophanthidin 3-acetate”.
For C[C@]12CC[C@H]3[C@@H](CC[C@@H]4CCCC[C@@]43COC=O)[C@@]1(O)CC[C@@H]2C1=CC(=O)OC1 [19-formate of 3-deoxycannogenol, 19-formyloxy-14-hydroxy-5β,14β-card-20(22)-enolide], the “inotropic effect, comparison in words” value [1] was “substantial inotropic activity which equals about that of digoxin”, the “inotropic effect, comparison in words” value ([1]; listed as 19-formate ester of 3-deoxycannogenol) was “less active than 3-deoxycannogenol” and the “lipophilicity, in words” value [2] was “more lipophilic”.
For C[C@]12CC[C@H]3[C@@H](CC[C@@H]4CCCC[C@@]43CO)[C@@]1(O)CC[C@@H]2C1COC(=O)C1 (stereo partly drawn) [drawing 21], the EC (30% increase in contractility) [1, 6] was 18.5 µM, the EC (50% increase in contractility) ([1]; Table 2, preliminary biological tests) was 40 µM and the “ATP-ase inhibition, % reversibility of inhibition” value (ATP-ase) was 57%. For the same molecule, the “ATP-ase inhibition, % inhibition at a 1×10^-4 molar concentration” value (“ATP-ase inhibition, % inhibition” for short) (ATP-ase) was 45%.
With C[C@]12CC[C@@H]3[C@H]4CCCC[C@H]4CC[C@H]3[C@@]1(O)CC[C@@H]2C1=CC(=O)OC1 [drawing 23] the “ATP-ase inhibition, % reversibility of inhibition” value (ATP-ase) was 76% and the “ATP-ase inhibition, % inhibition” value (ATP-ase) was 59%.
With C[C@]12CC[C@H]3[C@@H](CC[C@@H]4C=CCC[C@@]43COC=O)[C@@]1(O)CC[C@@H]2C1=CC(=O)OC1 the “ATP-ase inhibition, % reversibility of inhibition” value (ATP-ase) was 84% and the “ATP-ase inhibition, % inhibition” value (ATP-ase) was 41%.
In the case of C[C@]12CC[C@H]3[C@@H](CC[C@@H]4CCCC[C@@]43CO)[C@@]1(O)CC[C@@H]2C1=CC(=O)OC1 [3-deoxycannogenol, 19-hydroxy-3-deoxydigitoxigenin], the “number … from the bath / ease of removal” value (heart muscle) is reported as “more readily removed from the bath, containing the heart muscle, by repeated washing, than digoxin and less readily than the more polar strophanthidin 3-acetate; also recorded: digitoxin > digoxin > 3-deoxycannogenol > 14,19-dihydroxy-5β,14β-carda-3,20(22)-dienolide > strophanthidin 3-acetate”, the emetic effects (cats [3]) is reported as “no emetic effects” and the “dissociation of inotropic activity from ATP-ase inhibition and lethality, in words” value [1] is reported as “strong dissociation of inotropic activity from ATP-ase inhibition and lethality”. For the same molecule, the EC (50% increase in contractility) [1, 7] was 1.1 µM, the EC (30% increase in contractility) ([1]; Table I, guinea pig atria, 30%) was 0.72 µM and the EC (80% increase in contractility) ([1]; Table I, guinea pig atria) was 1.95 µM. The “arrhythmia, in words” value ([1]; at doses causing an increase of 90% of contractile force) was “no arrhythmia were observed”, the “inotropic effect, comparison in words” value [1] was “considerably more strongly than digoxin; also recorded: strong inotropic effect” and the “arrhythmogenicity relative to digoxin, in words” value [1] was “considerably less arrhythomogenic than digoxin”. For the same molecule, the “times more inotropic than digoxin” value ([1]; molar basis, relative to digoxin) was 2-4 times, the “lipophilicity, in words” value [2] was “considerably more lipohilic than the 19-oxygenated cardenolides obtained from natural sources” and the “toxicity relative to digoxin (lethal dose), in words” value (cats [4]; cats) was “substantially lower than that of digoxin; also recorded: less than half as toxic as digoxin”. For the same molecule, the “therapeutic index, in words” value (cats [4]) was “better therapeutic index”.
For C[C@]12CC[C@@H]3[C@H]4CCCC[C@H]4CC[C@H]3[C@@]1(O)CC[C@@H]2C1=CC(=O)OC1 [19-nor analog, 14-hydroxy-19-nor-5β,14β-card-20(22)-enolide], the “heart-activity, in words” value [1] was “substantial heart-activities”.
In the case of CC(=O)O[C@H]1CC[C@]2(C=O)[C@H]3CC[C@]4(C)[C@@H](C5=CC(=O)OC5)CC[C@]4(O)[C@@H]3CC[C@]2(O)C1 [strophanthidin 3-acetate], the “number … from the bath / ease of removal” value (heart muscle) is given as “digitoxin > digoxin > 3-deoxycannogenol > 14,19-dihydroxy-5β,14β-carda-3,20(22)-dienolide > strophanthidin 3-acetate”, the “intravenous activity, onset and duration, in words” value [5] is given as “high intravenous activity, fast onset and short duration of activity” and the “oral activity, in words” value [5] is given as “rather low oral activity”.
With C[C@]12CC[C@H]3[C@@H](CC[C@H]4C=CCC[C@@]43CO)[C@@]1(O)CC[C@@H]2C1=CC(=O)OC1 the “Molar concentration causing 30% increase in contractility” value [1, 6] was “inactive”, the “ATP-ase inhibition, % reversibility of inhibition” value (ATP-ase) was 81% and the “ATP-ase inhibition, % inhibition” value (ATP-ase) was 63%.
With C[C@]12CC[C@H]3[C@@H](CC[C@@H]4C=CCC[C@@]43CO)[C@@]1(O)CC[C@@H]2C1=CC(=O)OC1 [14,19-dihydroxy-5β,14β-carda-3,20(22)-dienolide] the “number … from the bath / ease of removal” value (heart muscle) was “digitoxin > digoxin > 3-deoxycannogenol > 14,19-dihydroxy-5β,14β-carda-3,20(22)-dienolide > strophanthidin 3-acetate”, the EC (50% increase in contractility) [1, 7] was 2.8 µM and the EC (30% increase in contractility) ([1]; Table I, guinea pig atria, 30%) was 2.2 µM. For the same molecule, the EC (80% increase in contractility) ([1]; Table I, guinea pig atria) was 4 µM, the “inotropic effect, comparison in words” value [1] was “generally between those of 3-deoxycannogenol and digoxin” and the “inotropic effect, comparison in words” value ([1]; listed as 3(4)-anhydrocannogenol) was “greater inotropic activity than digoxin, though it is less active than 3-deoxycannogenol”. The “arrhythmogenicity relative to digoxin, in words” value [1] was “considerably less arrhythomogenic than digoxin”, the “toxicity relative to digoxin, in words” value (ATP-ase; basis not stated, only ATP-ase inhibition tabulated) was “appears to be less toxic than digoxin” and the “ATP-ase inhibition, comparison in words” value (ATP-ase) was “generally between those of 3-deoxycannogenol and digoxin”.
In the case of C[C@@H]1O[C@@H](O[C@H]2C[C@@H](O)[C@]3(CO)[C@H]4[C@H](O)C[C@]5(C)[C@@H](C6=CC(=O)OC6)CC[C@]5(O)[C@@H]4CC[C@]3(O)C2)[C@H](O)[C@H](O)[C@H]1O [ouabain], the “intravenous activity, onset and duration, in words” value [5] is given as “high intravenous activity, fast onset and short duration of activity” and the “oral activity, in words” value [5] is given as “rather low oral activity”.
In the case of C[C@]12CCCC[C@H]1CC[C@@H]1[C@@H]2C[C@@H](O)[C@]2(C)[C@@H](C3=CC(=O)OC3)CC[C@]12O [3-deoxydigoxigenin], the EC (50% increase in contractility) [1, 7] is reported as 7.6 µM, the “inotropic effect, comparison in words” value [1] is reported as “comparable biological and inotropic effects” and the “arrhythmogenicity relative to digoxin, in words” value [1] is reported as “much less arrhythomogenic relative to the anitropic activity than digoxin”. The “ATP-ase inhibition, comparison in words” value (ATP-ase) was “comparable biological and inotropic effects and the ATP-ase inhibition as the 19-deoxygenated steroid acetyl-strophanthidin” and the IC50 (ATP-ase; guinea pig brain ATP-ase, read-out: Molar concentration causing 50% ATP-ase inhibition) was 68 µM.
C[C@]12CC[C@H]3[C@@H](CC[C@@H]4CCCC[C@@]43COC=O)[C@@]1(O)CC[C@@H]2C1=CC(=O)OC1 [drawing 19] showed an EC (30% increase in contractility) [1, 6] of 2.9 µM.
For C[C@@H]1O[C@@H](OC2CC[C@@]3(CO)[C@@H](CC[C@@H]4[C@@H]3[C@@H](O)C[C@]3(C)[C@@H](C5=CC(=O)OC5)CC[C@]43O)C2)[C@H](O)[C@H](O)[C@H]1O (stereo partly drawn) [panoside], the “cardiac activity, in words” value (heart) is listed as “high cardiac activity; also recorded: highly potent”.
In the case of C[C@]12CC[C@H]3[C@@H](CC[C@H]4CCCC[C@@]43COC=O)[C@@]1(O)CC[C@@H]2C1=CC(=O)OC1, the EC (30% increase in contractility) [1, 6] is reported as 50 µM, the “ATP-ase inhibition, % reversibility of inhibition” value (ATP-ase) is reported as 95% and the “ATP-ase inhibition, % inhibition” value (ATP-ase) is reported as 42%.
For C[C@]12CC[C@H]3[C@@H](CC[C@@H]4CCCC[C@@]43CO)[C@@]1(O)CC[C@@H]2C1COC(=O)C1 (stereo partly drawn) [20(22)-dihydro analog, 3-deoxy-20.xi.,22-dihydrocannogenol], the “heart-activity, in words” value [1] was “substantial heart-activities”.
In the case of C[C@]12CCCC[C@H]1CC[C@@H]1[C@@H]2CC[C@]2(C)[C@@H](C3=CC(=O)OC3)CC[C@]12O [3-deoxydigitoxigenin, 14-hydroxy-5β,14β-card-20(22)-enolide], the “cardiac activity, in words” value (heart) is listed as “significantly less active than digitoxigenin”.
In the case of CC(=O)O[C@@H]1C[C@]2(O)[C@H](CC[C@]3(C)[C@@H](c4ccc(=O)oc4)CC[C@@]32O)[C@@]2(C)CC[C@H](O)C=C12 [scillirosidin], the “cardiac activity, in words” value (heart) is given as “high cardiac activity”.
For CO[C@H]1C[C@H](O[C@H]2CC[C@]3(C)[C@H]4CC[C@]5(C)[C@@H](C6=CC(=O)OC6)CC[C@]5(O)[C@@H]4CC[C@]3(O)C2)O[C@H](C)[C@H]1O [cymaroside of 5β-hydroxydigitoxigenin], the “cardiac activity, in words” value (heart) is given as “nearly twice as active as the cymaroside of digitoxigenin”.
